Experimental data taken from patent US11168086B2, “Methods of synthesizing pyrazine compounds” (Hoffmann-La Roche Inc., priority 2015, dated 2021).
pEC50: −log10 of the molar value.

Test system: HBV
Test: HBV inhibition assay: anti-HBV activity in vitro in HepG2.2.15 cells (extracellular HBV DNA by qPCR)
Format: cell-based
Settings: Hepatitis B virus, 120 h, five days after compound treatment, extracellular HBV DNA in culture supernatant by qPCR, concentration at which HBV replication is inhibited by 50%
Description: Example 441: HBV Inhibition Assays
Cell Line and Culture Conditions:
HepG2.2.15 is a stably-transfected cell line containing the HBV genome. It is derived from the hepatoblastoma cell line Hep G2 (American Type Culture Collection, ATCC® HB-8065™) by the published procedures described in reference: MA Selles et al. Proc. Natl. Acad. Sci. USA 1987, 84, 1005-1009. The cell line was maintained in Dulbecco's modified Eagle's medium (DMEM)-F12 medium supplemented with 10% fetal bovine serum, 100 U/mL penicillin, 100 μg/mL streptomycin, and 0.5 mg/mL of G418.
Anti-HBV Activity In Vitro:
HepG2.2.15 cells were seeded into 96-well plates (3×10^4 cells in 100 μL media per well) and incubated overnight at 37° C. The test compounds were serially half-log diluted in DMSO, then diluted 100 times in culture media. 100 μL diluted compounds were added into the plates to reach 0.5% final concentration of DMSO in every well. Five days after compound treatment, culture supernatant was collected for further analysis.
For quantitative PCR detection of extracellular HBV DNA, culture supernatant was processed by Proteinase K digestion. After heat inactivation of the enzyme, the samples were subjected to HBV DNA quantification by qPCR. The effective compound concentration at which
HBV replication is inhibited by 50% (EC50) was determined.

Row | Compound | pEC50
1 | CC1Cn2ncc(-c3ccc(F)cc3F)c2CN1C(=O)Nc1cc(F)c(F)c(F)c1 (centres unmarked) [Example 178, 3-(2,4-difluorophenyl)-6-methyl-N-(3,4,5-trifluorophenyl)-6,7-dihydro-4H-pyrazolo[1,5-a]pyrazine-5-carboxamide] | 7.89
2 | CC1Cn2ncc(N3CCCC3=O)c2CN1C(=O)Nc1cc(F)c(F)c(F)c1 (centres unmarked) [Example 183, 6-methyl-3-(2-oxopyrrolidin-1-yl)-N-(3,4,5-trifluorophenyl)-6,7-dihydro-4H-pyrazolo[1,5-a]pyrazine-5-carboxamide] | 7.17
3 | C[C@H]1Cn2ncc(-c3ccc(F)cn3)c2CN1C(=O)Nc1cc(F)c(F)c(F)c1 [Example 198, (6S)-3-(5-fluoro-2-pyridyl)-6-methyl-N-(3,4,5-trifluorophenyl)-6,7-dihydro-4H-pyrazolo[1,5-a]pyrazine-5-carboxamide] | 7.52
4 | Cc1cnn(-c2cnn3c2CN(C(=O)Nc2ccc(F)c(Cl)c2)C(C)C3)c1 (centres unmarked) [Example 199, N-(3-chloro-4-fluoro-phenyl)-6-methyl-3-(4-methylpyrazol-1-yl)-6,7-dihydro-4H-pyrazolo[1,5-a]pyrazine-5-carboxamide] | 7.52
5 | CC1Cn2ncc(-n3cc(C#N)cn3)c2CN1C(=O)Nc1ccc(F)c(Cl)c1 (centres unmarked) [Example 200, N-(3-chloro-4-fluoro-phenyl)-3-(4-cyanopyrazol-1-yl)-6-methyl-6,7-dihydro-4H-pyrazolo[1,5-a]pyrazine-5-carboxamide] | 7.42
6 | CC1Cn2ncc(-n3cc(F)cn3)c2CN1C(=O)Nc1ccc(F)c(Cl)c1 (centres unmarked) [Example 201, N-(3-chloro-4-fluoro-phenyl)-3-(4-fluoropyrazol-1-yl)-6-methyl-6,7-dihydro-4H-pyrazolo[1,5-a]pyrazine-5-carboxamide] | 7.89
7 | CC1Cn2ncc(N3CCCC3=O)c2CN1C(=O)Nc1ccc(F)c(Cl)c1 (centres unmarked) [Example 202, N-(3-chloro-4-fluoro-phenyl)-6-methyl-3-(2-oxopyrrolidin-1-yl)-6,7-dihydro-4H-pyrazolo[1,5-a]pyrazine-5-carboxamide] | 7.29
8 | CC1Cn2ncc(N3CCCC3=O)c2CN1C(=O)Nc1ccc(F)c(C(F)(F)F)c1 (centres unmarked) [Example 203, N-[4-fluoro-3-(trifluoromethyl)phenyl]-6-methyl-3-(2-oxopyrrolidin-1-yl)-6,7-dihydro-4H-pyrazolo[1,5-a]pyrazine-5-carboxamide] | 7.01
9 | CC1Cn2ncc(C3CCCC3)c2CN1C(=O)Nc1cc(F)c(F)c(F)c1 (centres unmarked) [Example 204, 3-cyclopentyl-6-methyl-N-(3,4,5-trifluorophenyl)-6,7-dihydro-4H-pyrazolo[1,5-a]pyrazine-5-carboxamide] | 7.44
10 | CC1Cn2ncc(N3CC(C)(C)CC3=O)c2CN1C(=O)Nc1ccc(F)c(Cl)c1 (centres unmarked) [Example 212, N-(3-chloro-4-fluoro-phenyl)-3-(4,4-dimethyl-2-oxo-pyrrolidin-1-yl)-6-methyl-6,7-dihydro-4H-pyrazolo[1,5-a]pyrazine-5-carboxamide] | 7.48
11 | O=C(Nc1ccc(F)c(Cl)c1)N1CCn2ncc(N3CC4CC4C3)c2C1 (centres unmarked) [Example 215, 3-[3-azabicyclo[3.1.0]hexan-3-yl]-N-(3-chloro-4-fluoro-phenyl)-6,7-dihydro-4H-pyrazolo[1,5-a]pyrazine-5-carboxamide] | 7.00
12 | CC1Cn2ncc(-c3ccc(F)cc3F)c2CN1C(=O)Nc1ccnc(C(F)F)c1 (centres unmarked) [Example 218, N-[2-(difluoromethyl)-4-pyridyl]-3-(2,4-difluorophenyl)-6-methyl-6,7-dihydro-4H-pyrazolo[1,5-a]pyrazine-5-carboxamide] | 7.85
13 | C[C@H]1Cn2ncc(N3CC(C#N)CC3=O)c2CN1C(=O)Nc1ccc(F)c(Cl)c1 (stereo partly drawn) [Example 229, (6S)—N-(3-chloro-4-fluoro-phenyl)-3-(4-cyano-2-oxo-pyrrolidin-1-yl)-6-methyl-6,7-dihydro-4H-pyrazolo[1,5-a]pyrazine-5-carboxamide] | 7.33
14 | CC1CN(C(=O)Nc2ccc(F)c(Cl)c2)Cc2c(-c3ccc(F)cc3)cnn21 (centres unmarked) [Example 230, N-(3-chloro-4-fluoro-phenyl)-3-(4-fluorophenyl)-7-methyl-6,7-dihydro-4H-pyrazolo[1,5-a]pyrazine-5-carboxamide] | 7.28
15 | C[C@H]1Cn2ncc(N3CCCC3=O)c2CN1C(=O)Nc1cc(F)c(F)c(Cl)c1 [Example 231, (6S)—N-(3-chloro-4,5-difluoro-phenyl)-6-methyl-3-(2-oxopyrrolidin-1-yl)-6,7-dihydro-4H-pyrazolo[1,5-a]pyrazine-5-carboxamide] | 7.60
16 | C[C@H]1Cn2ncc(N3CC(O)CC3=O)c2CN1C(=O)Nc1ccc(F)c(Cl)c1 (stereo partly drawn) [Example 232, (6S)—N-(3-chloro-4-fluoro-phenyl)-3-(4-hydroxy-2-oxo-pyrrolidin-1-yl)-6-methyl-6,7-dihydro-4H-pyrazolo[1,5-a]pyrazine-5-carboxamide] | 7.31
17 | C[C@H]1Cn2ncc(N3CCOCC3=O)c2CN1C(=O)Nc1cc(F)c(F)c(F)c1 [Example 233, (6S)-6-methyl-3-(3-oxomorpholin-4-yl)-N-(3,4,5-trifluorophenyl)-6,7-dihydro-4H-pyrazolo[1,5-a]pyrazine-5-carboxamide] | 7.12
18 | C[C@H]1Cn2ncc(N3CCOCC3=O)c2CN1C(=O)Nc1cc(F)c(F)c(Cl)c1 [Example 235, (6S)—N-(3-chloro-4,5-difluoro-phenyl)-6-methyl-3-(3-oxomorpholin-4-yl)-6,7-dihydro-4H-pyrazolo[1,5-a]pyrazine-5-carboxamide] | 7.41
19 | CC1Cn2ncc(N3CCOC3=O)c2CN1C(=O)Nc1ccc(F)c(Cl)c1 (centres unmarked) [Example 237, N-(3-chloro-4-fluoro-phenyl)-6-methyl-3-(2-oxooxazolidin-3-yl)-6,7-dihydro-4H-pyrazolo[1,5-a]pyrazine-5-carboxamide] | 7.13
20 | COC1CC(=O)N(c2cnn3c2CN(C(=O)Nc2ccc(F)c(Cl)c2)[C@@H](C)C3)C1 (stereo partly drawn) [Example 238, (6S)—N-(3-chloro-4-fluoro-phenyl)-3-(4-methoxy-2-oxo-pyrrolidin-1-yl)-6-methyl-6,7-dihydro-4H-pyrazolo[1,5-a]pyrazine-5-carboxamide] | 7.68
21 | C[C@H]1Cn2ncc(N3CCCC3=O)c2CN1C(=O)Nc1cc(F)c(F)c(C(F)F)c1 [Example 239, (6S)—N-[3-(difluoromethyl)-4,5-difluoro-phenyl]-6-methyl-3-(2-oxopyrrolidin-1-yl)-6,7-dihydro-4H-pyrazolo[1,5-a]pyrazine-5-carboxamide] | 7.42
22 | C[C@H]1Cn2ncc(N3CC(C#N)CC3=O)c2CN1C(=O)Nc1cc(F)c(F)c(F)c1 (stereo partly drawn) [Example 240, (6S)-3-(4-cyano-2-oxo-pyrrolidin-1-yl)-6-methyl-N-(3,4,5-trifluorophenyl)-6,7-dihydro-4H-pyrazolo[1,5-a]pyrazine-5-carboxamide] | 7.80
23 | C[C@H]1Cn2ncc(N3C[C@H](C#N)CC3=O)c2CN1C(=O)Nc1cc(F)c(F)c(F)c1 [Example 240-1, (6S)-3-[(4R)-4-cyano-2-oxo-pyrrolidin-1-yl]-6-methyl-N-(3,4,5-trifluorophenyl)-6,7-dihydro-4H-pyrazolo[1,5-a]pyrazine-5-carboxamide] | 7.26
24 | C[C@H]1Cn2ncc(N3C[C@@H](C#N)CC3=O)c2CN1C(=O)Nc1cc(F)c(F)c(F)c1 [Example 240-2, (6S)-3-[(4S)-4-cyano-2-oxo-pyrrolidin-1-yl]-6-methyl-N-(3,4,5-trifluorophenyl)-6,7-dihydro-4H-pyrazolo[1,5-a]pyrazine-5-carboxamide] | 8.05
25 | C[C@H]1Cn2ncc(N3CC(C(F)(F)F)CC3=O)c2CN1C(=O)Nc1ccnc(C(F)F)c1 (stereo partly drawn) [Example 241, (6S)—N-[2-(difluoromethyl)-4-pyridyl]-6-methyl-3-[2-oxo-4-(trifluoromethyl)pyrrolidin-1-yl]-6,7-dihydro-4H-pyrazolo[1,5-a]pyrazine-5-carboxamide] | 7.12
26 | CC1CN(c2cnn3c2CN(C(=O)Nc2cc(F)c(F)c(F)c2)[C@@H](C)C3)C(=O)CO1 (stereo partly drawn) [Example 243, (6S)-6-methyl-3-(2-methyl-5-oxo-morpholin-4-yl)-N-(3,4,5-trifluorophenyl)-6,7-dihydro-4H-pyrazolo[1,5-a]pyrazine-5-carboxamide] | 7.51
27 | C[C@H]1Cn2ncc(N3CC(C)(C)NC3=O)c2CN1C(=O)Nc1ccc(F)c(Cl)c1 [Example 245, (6S)—N-(3-chloro-4-fluoro-phenyl)-3-(4,4-dimethyl-2-oxo-imidazolidin-1-yl)-6-methyl-6,7-dihydro-4H-pyrazolo[1,5-a]pyrazine-5-carboxamide] | 7.28
28 | C[C@H]1Cn2ncc(N3CC(c4cnco4)CC3=O)c2CN1C(=O)Nc1cc(F)c(F)c(F)c1 (stereo partly drawn) [Example 247, (6S)-6-methyl-3-(4-oxazol-5-yl-2-oxo-pyrrolidin-1-yl)-N-(3,4,5-trifluorophenyl)-6,7-dihydro-4H-pyrazolo[1,5-a]pyrazine-5-carboxamide] | 7.85
29 | C[C@H]1Cn2ncc(N3CN(S(C)(=O)=O)CC3=O)c2CN1C(=O)Nc1cc(F)c(F)c(F)c1 [Example 248, (6S)-6-methyl-3-(3-methylsulfonyl-5-oxo-imidazolidin-1-yl)-N-(3,4,5-trifluorophenyl)-6,7-dihydro-4H-pyrazolo[1,5-a]pyrazine-5-carboxamide] | 7.03
